Experimental findings from a melting point compilation (Tetko et al.; mined from patent text by program, amines drawn as free bases though some values may be those of a salt) are described below.

Consider `C[C@H](NC(=O)OCc1ccccc1)C(=O)N1CCC[C@H]1C(=O)NC1CCCCCC1`, for which the melting point lay within 110 to 113 °C. Compound `CC(C)(C)c1ccc(/C=C/C(=O)Nc2ccccc2)cc1` had a melting point of 141 °C. The compound `CN(C)c1nn(-c2cc(F)c(C#N)cc2F)c(=O)n1C(F)F` yielded a melting point of 188 to 190 °C.

The compound `CCOC(=O)c1cnoc1-c1ccc(C(F)(F)F)cc1` displayed a melting point of 42 to 44 °C. Compound `CC(C)(C)OC(=O)Cn1c(C(=O)O)cc2cnccc21` yielded a melting point of 265 °C. For `CCOC(=O)c1nn(-c2ccc(C)cc2)nc1C` the value was 47 to 48 °C; for `CN(C)C(=O)n1nc(-c2ccncc2)nc1-c1ccncc1`, 140 to 142 °C; for `CC(C)(C)c1cc(SCCC=O)cc(C(C)(C)C)c1O`, 64 to 65 °C. Consider `O=C1C=CC2(C=C1)N=C(N1CCN(Cc3ccc(F)cc3)CC1)C=C2c1ccccc1`, for which the melting point came to 188 °C. For `CN1CCC(c2c3n(c4ccc(O)cc24)CCC3)CC1` the value was over 250 °C. For the compound `O=c1oc(-c2ccccc2)nc2cccc(F)c12`, the melting point fell in the range of 162 to 164 °C. As to `N#CC(C(=O)N1CCOCC1)=C1Nc2ccccc2O1`, the melting point fell in the range of 217 to 219 °C. For `O=C(Cc1ccc(-c2ccccc2)cc1)NCCc1ccc(OCc2ccccc2)c(OCc2ccccc2)c1` the value was 142 to 144 °C; for `CCCOC(=O)CCc1cc(S(C)(=O)=O)cc(-c2nc(=O)c3ccc(Cl)cc3s2)n1`, 235 to 236 °C. `Cn1ccc(=O)c(O)c1C(O)c1ccccc1` (configuration not stated) came in with a melting point of 210 to 213 °C. For `CCOC(=O)C1(Br)Oc2ccccc2OC1Br` (configuration not stated) the value was 102 °C; for `CC(C)(C)NC(=O)c1ncccc1CCc1ccc(F)cc1`, 59 to 61 °C. In turn, `O=C(N[C@@H]1CN2CCC1CC2)c1cccc2c1cc1n2CCCC1` yielded a melting point of 163 to 164 °C. Regarding `CC(=O)N1CCS(=O)c2ccccc2C1` (configuration not stated), the melting point is 156 to 157 °C. For `COc1ccc(C2(c3nc(N)nc(N)n3)CCCCC2)cc1` the value was 159 to 163 °C; for `CCCc1nc(C(C)(O)CC)c(C#N)n1Cc1ccc(-c2ccccc2-c2nnn[nH]2)cc1` (configuration not stated), 141 to 145 °C; for `CN(C(=O)c1cnn(C)c1C(=O)Nc1ccc2nc(-c3cccnc3)nn2c1)C1CC1`, 237 °C. `CC(C)(C)OC(=O)N1CCC(NC(=O)c2ccc(-n3cccn3)cc2)C1` (configuration not stated) yielded a melting point of 263 to 264 °C. Under `Cc1cc(C)c(N2CCCCC2=S)c(Cl)c1` stands 147 to 148 °C; under `O=C(NCc1cccc(-c2nc(=O)c3ccccc3s2)n1)C(F)(F)F`, 226 to 227 °C. On to `O=[N+]([O-])c1ccc(OCc2ccccc2)c2cnsc12`, for which the melting point lay within 158 to 160 °C. Regarding `N#Cc1c(N2CCCCC2)cc(-c2ccc(Br)cc2)c2c1Cc1ccccc1-2`, the melting point amounted to 212 °C. `COC(=O)CCCc1nc(-c2ccc(C)cc2)oc1C(F)(F)F` showed a melting point of 44.5 to 45 °C. As for `CCCc1c(C(=O)NCc2ccc3cc(O)ccc3c2)cnn1-c1ccccc1`, the melting point was in the range of 189 to 190 °C. `CCCCCCCCCCCCCCCCN[C@H](C(=O)N[C@H](C(=O)O)C(C)C)C(C)C` displayed a melting point of 120 to 123 °C. For `CC(C)NC1=NS(=O)(=O)c2ccc(CC#N)cc2N1` the value was 195 to 203 °C; for `COC(=O)c1ccc(CCCCO)cc1`, 95.5 to 96 °C; for `COC(=O)C1=C(C)NC(C)=C(C(=O)NCCOC(=O)N2CCC3(CC2)CC(=O)N(OC)C3=O)C1c1cccc([N+](=O)[O-])c1` (configuration not stated), 107 to 113 °C. `CCOC(=O)C1=Cc2c3c(c(C(=O)OCC)cc2=N1)=Nc1cnccc1-3` yielded a melting point of 198 to 201 °C. As for `CC(=O)OCc1ccccc1/C(=N\O)C(N)=O`, the melting point is 112 to 114 °C.

Take `O=C1c2cccc(N3CCCC3)c2OC12CC2`: the melting point came out at 102 °C.

The compound `O=C(NC(=O)c1ccccc1)NC1CCCc2ccccc21` (configuration not stated) returned a melting point of 166 to 169 °C.
